# From patent publication EP0186181A2, “Uses for enprostil” (SYNTEX (U.S.A.) INC., priority 1984, dated 1986)
# Like-named read-outs stand apart in the source and are kept apart here.
# Experiments:
# insulin levels = details: cited from earlier work
# serum cholesterol [1] = assay: Cholesterol reduction study, 7 to 70 µg BID versus placebo (Example II, Table 1); assay type: in vivo, human
# [2] = test system: serum insulin and glucose; assay: Eight-day crossover study with standard breakfast: serum glucose, insulin, GIP (Example VI); assay type: in vivo, human; details: 70 µg orally
# Description: Eight healthy male subject received either 70 µg enprostil per day or placebo for eight days followed by a washout period of one week and a subsequent second eight-day administration during which they received the opposite drug regime.
# On day 1 and day 8 of each study period the patients reported to the clinical studies unit fasting and were administered 70 µg of enprostil orally in a glass of water. Thirty minutes later they were administered a standard breakfast and blood samples were drawn at -30, just prior to enprostil administration, 0, at the time of enprostil administration, 15, 30, 60, 90, 120 and 180 minutes.
# serum glucose [3] = assay: Serum glucose after standard breakfast, study lasting up to 44 days (Example VIII); assay type: in vivo, human; details: 35 µg BID, standard breakfast 30 minutes after dose
# Description: 20 subjects participated in a study lasting up to 44 days. On day -8, all 20 subjects received a placebo capsule followed 30 minutes later by a standard breakfast with serial blood measurements. Eight days later all 20 subjects were randomized to either enprostil […] BID or placebo and continued dosing for a period of 30 days. On days 1, 8, and 30, they were given enprostil followed 30 minutes later by a standard breakfast with serial blood measurements.
# [4] = test system: serum cholesterol, LDL cholesterol, HDL cholesterol, apoproteins; assay: 9-day placebo controlled cross-over study in normal subjects: cholesterol, LDL, HDL, apoproteins (Table 2); assay type: in vivo, human; set-up: Mean reduction of cholesterol / Mean reduction of LDL cholesterol / Mean reduction of HDL cholesterol / Mean reduction of apoprotein A / Mean reduction of apoprotein B: concentration or dose not given beside the values; details: 9-day cross-over
# Description: To further clarify the nature of these changes in a prospective manner, normal subjects were dosed with enprostil for periods ranging from 8 days up to 44 days in duration.
# In a 9-day placebo controlled cross-over study, with each subject serving as their own control, the mean reduction in cholesterol, Low Density Lipoprotein (LDL) cholesterol, and High Density Lipoprotein (HDL) cholesterol are shown in Table 2.
# These findings are surprising since the subjects in this study were normocholesterolemic at baseline (that is serum cholesterol under 250 mg/dl) and were on a free diet with no attempt to regulate dietary cholesterol intake.
# serum GIP = assay: Serum GIP after meal stimulus, double blind crossover study (Example IV); assay type: in vivo, human; details: 70 µg orally 30 minutes before meal; placebo showed a four fold increase
# Description: Serum GIP levels are known to increase after meals.
# Groups of 10 subjects participated in a double blind, crossover study. Either the placebo or 70 µg enprostil was orally given 30 minutes before meal time and levels of GIP were measured.
# serum glucose [5] = assay: 25 g intravenous glucose tolerance test (Example VII); assay type: in vivo, human; details: 30 minutes following enprostil administration, day 2 and day 10
# Description: (§1) 10 normal subjects participated in a 10-day placebo controlled cross-over receiving either placebo or […] enprostil per day. On day 1 and day 9 of each study phase they orally received 5 g of d-xylose, a sugar not normally metabolized in man. Blood measurements for serum xylose were made at -30, 0, +30, 60, 120, 180, 240, and 300 minutes following ingestion of xylose. On day 2 and day 10 of each study phase, the subjects received a 25 g intravenous glucose tolerance test, 30 minutes following enprostil administration.
# serum cholesterol [6] = assay: Effect of orally administered enprostil on serum cholesterol, five weeks (Example I); assay type: in vivo, human
# Description: A group of 20 patients with high cholesterol baseline were orally given 70 µg enprostil twice daily. […] The median change for the group was 16 percent reduction, with 60 percent of the patients tested showing a significant reduction in serum cholesterol.
# A second group of 16 patients with a high cholesterol baseline were given 35 µg enprostil twice daily.
# A third group of 13 individuals were given a placebo. […] The median change was a 2 percent increase in cholesterol.
# [7] = test system: serum insulin and glucose; assay: Serum insulin and glucose after meal, double blind crossover study (Example V); assay type: in vivo, human; details: orally 30 minutes before meal
# Description: A group of 10 subjects participated in a double blind crossover study. Either a placebo or enprostil was orally given 30 minutes before meal time and levels of insulin and glucose were measured after the meal.
# serum cholesterol [8] = assay: 44 day dosing placebo controlled trial, serum cholesterol (Example III); assay type: in vivo, human
# Description: In a 44 day dosing study 20 subject participated in a placebo controlled trial. Ten subjects received enprostil and the remainder received placebo. […] Similarly there was a 46% reduction in their LDL cholesterol from 140 mg/dl to 75 mg/dl. This subject was normocholesterolemic at baseline and no dietary manipulation was attempted.
# serum xylose = assay: Oral d-xylose absorption, 10-day placebo controlled cross-over (Example VII); assay type: in vivo, human; details: 70 µg enprostil per day, 5 g d-xylose orally
# Description: as §1
# [9] = administered by tube to the duodenum
# [10] = normocholesterolemic subjects, free diet
# [11] = 35 µg twice daily, of 16 patients
# [12] = 70 µg twice daily, of 20 patients
# [13] = of nine subjects who received enprostil
# [14] = subject number 120, from 140 mg/dl
smiles,measurement,setting,value
"CCCCC[C@](C)(O)/C=C/[C@H]1[C@H](O)CC(=O)[C@@H]1C/C=C\CCCC(=O)OC [15S, 15 methyl PGE2 methyl ester]",insulin levels,insulin levels; [9],lowered insulin levels
same,serum glucose levels,insulin levels; [9],no change
same,time to peak serum glucose levels,insulin levels; intraduodenally or intravenously,no change
same,glucose levels,insulin levels; intravenous administration,without affecting glucose levels
same,insulin levels,insulin levels; intravenous administration,lowered insulin levels
COC(=O)CCC=C=CC[C@H]1C(=O)C[C@@H](O)[C@@H]1/C=C/[C@@H](O)COc1ccccc1 [enprostil],Cholesterol % decrease (combined 2-12 week of dosing),"serum cholesterol [1]; 7 µg BID, 9 subjects",67%
same,Median % change (cholesterol),"serum cholesterol [1]; 7 µg BID, 9 subjects",-11%
same,Cholesterol % decrease (combined 2-12 week of dosing),"serum cholesterol [1]; 35 µg BID, 28 subjects",64%
same,Median % change (cholesterol),"serum cholesterol [1]; 35 µg BID, 28 subjects",-13%
same,Cholesterol % decrease (combined 2-12 week of dosing),"serum cholesterol [1]; 70 µg BID, 28 subjects",64%
same,Median % change (cholesterol),"serum cholesterol [1]; 70 µg BID, 28 subjects",-17%
same,serum GIP,[2]; both study days,essentially complete inhibition
same,serum insulin concentrations for each time point,[2]; day 1 and 8,marked reduction
same,reduction of area under the serum glucose by time curve compared to the placebo phase,[2]; day 1 and day 8,15-20%
same,peak blood glucose levels versus placebo,serum glucose [3],substantially reduced
same,time of appearance of peak blood glucose levels,serum glucose [3]; delay from approximately 60 minutes,~90 min
same,change in total triglycerides,[4],essentially no change
same,Mean reduction of HDL cholesterol,[4]; [10],-9.2%
same,Mean reduction of LDL cholesterol,[4]; [10],-21.0%
same,Mean reduction of apoprotein A,[4]; [10],-1.8%
same,Mean reduction of apoprotein B,[4]; [10],-16.0%
same,Mean reduction of cholesterol,[4]; [10],-15.0%
same,increase in serum GIP 60 minutes after the meal stimulus,serum GIP,no increase
same,"serum glucose by time curves following intravenous glucose administration, versus placebo",serum glucose [5],no marked differences
same,patients showing serum cholesterol reduction,"serum cholesterol [6]; 35 µg twice daily, 16 patients",56%
same,median change (reduction in serum cholesterol),"serum cholesterol [6]; 35 µg twice daily, 16 patients with high cholesterol baseline",eleven
same,number of patients showing greater than 10 percent serum cholesterol reduction,serum cholesterol [6]; [11],eight
same,number of patients showing greater than 25 percent reduction in serum cholesterol,serum cholesterol [6]; [11],one
same,number of patients showing no change in serum cholesterol,serum cholesterol [6]; [11],seven
same,patients tested showing a significant reduction in serum cholesterol,"serum cholesterol [6]; 70 µg twice daily orally, 20 patients",60%
same,median change for the group (reduction in serum cholesterol),"serum cholesterol [6]; 70 µg twice daily orally, 20 patients with high cholesterol baseline",16%
same,number of patients showing greater than 10 percent reduction in serum cholesterol,serum cholesterol [6]; [12],eleven
same,number of patients showing greater than 25 percent reduction in serum cholesterol,serum cholesterol [6]; [12],one
same,number of patients showing no change in serum cholesterol,serum cholesterol [6]; [12],eight
same,raise in glucose levels after the meal,[7],no statistically or clinically significant raise
same,increase of insulin levels after the meal,[7]; placebo five fold,two
same,number of individuals with a reduction in total and LDL cholesterol throughout the entire 44 day period,serum cholesterol [8]; [13],Three
same,number of subjects showing a reduction of total cholesterol by 16 days,serum cholesterol [8]; [13],Six
same,reduction of total serum cholesterol,"serum cholesterol [8]; subject number 120, day 44 versus mean baseline of 208 mg/dl",43%
same,LDL cholesterol after dosing,serum cholesterol [8]; [14],75 mg/dL
same,reduction in LDL cholesterol,serum cholesterol [8]; [14],46%
same,total serum cholesterol at day 44,"serum cholesterol [8]; subject number 120, mean baseline 208 mg/dl",123 mg/dL
same,reduction in the amount of xylose excreted over 5 hours,serum xylose,30%
same,peak serum xylose levels,serum xylose; days 1 and 9,marked suppression and delay
same,amount of xylose excreted over 5 hours,serum xylose; versus 1.8g,1.3 g
